Data from publication PMC10982999, “Structure-Guided Design and Optimization of Covalent VHL-Targeted Sulfonyl Fluoride PROTACs” (Journal of Medicinal Chemistry, 2024).

What was measured:
[1] = biological target: T1, VCB and FAM-conjugated HIF1α-derived peptide interaction (Homo sapiens, UniProt P40337); test: Competitive fluorescence polarization (FP) assay, VCB / FAM-conjugated HIF1α-derived peptide; type: binding; details: concentrations up to 100 μM, 2 h pre-incubation with VCB
T1 construct: human VHL (UniPort entry P40337, residues 1 -213); 6xHis followed by TEV site (N, cleaved yes); made in house; host or cells: E. coli One Shot BL21(DE3)
Description: We next focused on developing a second generation covalent VHL binder with enhanced potency and occupancy.
Figure 2 (A) Structure of VHL-SF2. […] (E) Competition pull-down assay from live cells between VHL-SF2-Biotin and VHL-SF2. HEK293T cells were pretreated with DMSO or varying concentrations of VHL-SF2 for 2 h at 37 °C. The cells were lysed and treated with DMSO or VHL-SF2-Biotin (50 μM) for 2 h at room temperature. A pull-down with streptavidin beads was conducted, after which the protein was resolved on SDS/PAGE. VHL and loading control GAPDH levels were visualized by Western blotting.
Figure S3. (A) Gel-based VHL labelling of VHL-SF1-Biotin, and (B) VHL-SF2-Biotin. VCB protein was pre-treated with DMSO, VHL-SF1-Biotin or VHL-SF2-Biotin for 2 h at room temperature, after which protein was resolved on SDS -PAGE and visualised by Neutravidin […]
Figure S4. Dose-response of VHL-SF1 following a 2 h pre-incubation in the presence of VCB and FAM-conjugated HIF1α-derived peptide, assessed by fluorescence polarization. Data […]
Figure S5. (A) VCB was incubated with DMSO for 24 h and subjected to intact-protein LC-MS (VHL: 24784 Da). […]
Fluorescence polarization assay protocol […]
well plate and the plate was shaken for 1 min, before reading fluorescence polarization on a Perkin Elmer Envision 2101 plate reader (excitation 486 nm, emission 535 nm). […]

physchem = details: buffer
Description: Table S1. Sulfonyl fluoride warhead stability for VHL-SF1 and VHL-SF2 was determined in
(1 picture or pasted object on this page, not shown here)

[2] = biological target: T2, recombinant human VCB (VHL protein with elongin C and elongin B) (Homo sapiens, UniProt P40337); test: Gel-based streptavidin shift assay (anti-VHL Western blot); type: binding; details: 10 μM probe, 2 h incubation at room temperature
T2 construct: human VHL (UniPort entry P40337, residues 1 -213); 6xHis followed by TEV site (N, cleaved yes); made in house; host or cells: E. coli One Shot BL21(DE3)
Description: To assess the ability of VHL-SF1 to covalently modify VHL, we initially developed a streptavidin shift assay in which we exposed recombinant human VCB, a stable complex of VHL protein with elongin C and elongin B, to VHL-SF1-Biotin. VHL biotinylation could then be directly quantified by the apparent shift in molecular weight observed when the sample was mixed with streptavidin and analyzed by an anti-VHL Western blot (Figure S2).[20] Through this assay, we concluded that 10 μM VHL-SF1-Biotin modified 32% VHL following 2 h of incubation at room temperature, which was further confirmed to be concentration-dependent with respect to the probe (Figure S3).
Figure S2. (A) Structure of VHL-SF-1-Biotin. (B) Structure of VHL-SF-2-Biotin. (C - E) Gel-based streptavidin shift assay of VHL-SF1-Biotin, and VHL-SF2-Biotin. VCB protein was pre-treated with DMSO, VHL-SF1-Biotin (10 μM) or VHL-SF2-Biotin (10 μM) for 2 h at room temperature prior to addition of streptavidin (10 μM, 10 min) at room temperature, after which protein was resolved on SDS-PAGE and visualised by VHL western blotting. (F) Quantification of VHL levels from western blot.
Docking analysis with Molecular Operating Environment (MOE)
Molecular modelling studies were conducted using the software Molecular Operating Environment 2019.01. […]

| SMILES | displacement of fluorophore-labeled HIF1α peptide [1] | half-life (physchem; pH 6) | half-life (physchem; pH 7.5) | VHL modified (VHL biotinylation, streptavidin shift) [2] |
| --- | --- | --- | --- | --- |
| CC(=O)N[C@H](C(=O)N1C[C@H](S(=O)(=O)F)C[C@H]1C(=O)NCc1ccc(-c2scnc2C)cc1)C(C)(C)C [VHL-SF1, (3R,5S)-1-((S)-2-Acetamido-3,3-dimethylbutanoyl)-5-((4-(4-methylthiazol-5-yl)benzyl)carbamoyl)-pyrrolidine-3-sulfonyl fluoride] | unable to displace | 15 h | 0.55 h |  |
| Cc1cc([C@H](C(=O)N2C[C@H](S(=O)(=O)F)C[C@H]2C(=O)N[C@@H](CC(=O)NCCOCCOCCOCCNC(=O)CCCC[C@H]2SC[C@@H]3NC(=O)N[C@@H]32)c2ccc(-c3scnc3C)cc2)C(C)C)on1 [VHL-SF2-Biotin, (3R,5S)-1-((R)-3-Methyl-2-(3-methylisoxazol-5-yl)butanoyl)-5-(((S)-1-(4-(4-methylthiazol-5-yl)phenyl)-3,17-dioxo-21-((3aS,4R,6aR)-2-oxohexahydro-1H-thieno[3,4-d]imidazole-4-yl)-7,10,13-trioxa-4,16-diazahenicosyl)carbamoyl)pyrrolidine-3-sulfonyl fluoride] |  |  |  | 44% |
